Measurements as given in patent US11414387B2, “Oxoacridinyl acetic acid derivatives and methods of use” (Stingthera, Inc., priority 2017, dated 2022).

Columns and labels:
mSTING = mSTING (Mus musculus, UniProt Q3TBT3); test: Radiometric filtration binding competition assay, mSTING
Description: (§1) A radiometric filtration binding competition assay was performed to quantify the binding affinity of compounds of the present application for the human or mouse STING protein, or associated HAQ human isoform. […] The resulting dose response was fit by non-linear regression to determine an IC50 value, from which a Ki value for each compound was extrapolated.
(§2) The resulting complexes were then filtered, dried, and scintillation fluid was added and the remaining radio signal was measured to determine the degree of compound ligand inhibition. This assay format was optimized for both the WT and HAQ isoforms of the human protein and the mouse orthologue protein.
(§3) Probe Concentration: Minimum concentration that achieved max assay window • g. Assay Format: Scintillation Proximity Bead or Filtration Binding Plate • h. […] Assay incubation times for successive incubation steps
(§4) WT-hSWAT: WT_FBA_HIS-SUMO-hSWAT IC50 (μM) (“WT”=Wild-type); HAQ-hSWAT: HAQ_FBA_HIS-SUMO-hSWAT IC50 (μM) (“HAQ”=human HAQ allele of STING protein); and WT-mSWAT: MOUSE_FBA_HIS-SUMO-mnSWAT IC50 (μM) which is the mouse isoform of STING protein.

STING protein = STING protein (Homo sapiens (Human), UniProt Q86WV6, H232R); test: Cell based reporter assay of IRF activation (IRF-luciferase), THP1-dual-KI R232; settings: read-out: THP1-dual-KI R232_IRF(Luciferase)_Activity Maximum measured (%)
STING protein, sequence (Q86WV6 whole entry H232R, the tested form may be a part): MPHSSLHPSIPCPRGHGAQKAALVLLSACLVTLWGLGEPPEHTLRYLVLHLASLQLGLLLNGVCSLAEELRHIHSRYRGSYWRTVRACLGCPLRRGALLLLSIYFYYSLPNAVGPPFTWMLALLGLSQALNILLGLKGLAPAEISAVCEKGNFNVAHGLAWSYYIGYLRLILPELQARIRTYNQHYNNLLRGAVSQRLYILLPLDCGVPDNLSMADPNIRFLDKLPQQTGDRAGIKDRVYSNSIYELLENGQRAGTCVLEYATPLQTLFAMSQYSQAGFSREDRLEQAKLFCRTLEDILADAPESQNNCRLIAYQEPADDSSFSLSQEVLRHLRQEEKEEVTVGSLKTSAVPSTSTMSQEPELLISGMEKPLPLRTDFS
Excerpt: Briefly, THP-1 monocytes were transfected and selected for stable integration of 2 reporter constructs. Clones incorporating stably integrated vectors were further selected by antibiotic resistance to blastocidin and zeocin. The reporter constructs included: (1) firefly luciferase reporter gene under the control of an ISG54 promoter fused to five interferon (IFN)-stimulated response elements to measure IRF transcription factor binding activity and (2) secreted embryonic alkaline phosphatase reporter gene under transcription control of an IFN-beta minimal promoter fused to 5 copies of the NFkB consensus transcriptional response element and 3 copies of the c-Rel binding site.
The resulting THP-1 cell line was further modified to incorporate 3 amino acid point mutations (H71R A230G Q293R). This modification of the native TMEM173 gene in THP-1 cells (HAQ) was designed to produce a cell reporter that expressed the most common allelic variant in the human population (THP-1 R232, available from InvivoGen). Alternatively, the TMEM173 gene was knocked out to provide a congenic control to counter-screen for compound activation that was independent of the STING protein (THP-1 STING KO).
Once cell lines were established, reporter assay protocols were developed and optimized to screen small molecule compounds for agonist activity. Assay optimization for efficacy and Z′ value included titration of the following parameters:
• 1. Cell pre-activation with PMA • 2. Cell seeding density • 3. DMSO tolerance • 4. Media selection • 5. FBS concentration • 6. Incubation time • 7. Co-Assessment of cell viability by CTG assay • 8. Appropriate HPE and ZPE controls • 9. Dose Response Titration Final Assay SOP Conditions • 1. No pre-activation with PMA • 2. 5×10^4 cells/well in 96 well plate format • 3. <0.5% DMSO • 4. […] 10% FBS • 6. 14-18 hr incubation • 7. Cell Titer Glo reagent (Promega) following supernatant removal • 8.

hSTING-R232 = hSTING-R232 (Homo sapiens (Human), UniProt Q86WV6, H232R); test: STING differential scanning fluorimetry (DSF) assay, WT human STING; settings: WT (R232) human STING aa140-379, net shift in melting temperature
hSTING-R232, sequence (Q86WV6 140-379 H232R): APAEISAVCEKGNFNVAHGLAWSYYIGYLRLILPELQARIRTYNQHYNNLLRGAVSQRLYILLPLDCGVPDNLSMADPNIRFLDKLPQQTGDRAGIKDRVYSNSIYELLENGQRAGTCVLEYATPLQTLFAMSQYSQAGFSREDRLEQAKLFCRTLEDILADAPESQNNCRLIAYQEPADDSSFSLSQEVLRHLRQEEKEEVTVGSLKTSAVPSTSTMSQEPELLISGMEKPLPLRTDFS

hSTING-WT = hSTING-WT (Homo sapiens (Human), UniProt Q86WV6, H232R); test: Radiometric filtration binding competition assay, hSTING-WT
hSTING-WT, sequence (Q86WV6 140-379 H232R): as above
Description: as §1, §2, §3, §4

Row | Structure (SMILES) | IC50 (mSTING) | Emax (STING protein) | WT_DSF_hSWAT Tm Shift (° C.) (hSTING-R232) | IC50 (hSTING-WT)
1 | Cc1ccc2c(=O)c3ccc(Cl)c(OCc4ccccc4)c3n(CC(=O)O)c2c1 [Compound 285] | 20 to 100 µM | 25 to 50% | D (“D” > 7° C.) | 20 to 100 µM
2 | CSc1c(Cl)ccc2c(=O)c3ccc(Nc4ncccn4)cc3n(CC(=O)O)c12 [Compound 276] | < 20 µM | > 50% | D (“D” > 7° C.) | < 20 µM
3 | COc1c(Cl)c(N)cc2c(=O)c3ccccc3n(CC(=O)O)c12 [Compound 316] | > 300 µM | < 5% | B (“B” = 0-2° C.) | > 300 µM
4 | CCCCCCOc1c(Cl)ccc2c(=O)c3ccccc3n(CC(=O)O)c12 [Compound 303] | 100 to 300 µM | 5 to 25% | C (“C” = 2-7° C,) | 20 to 100 µM
5 | C#CCOc1c(Cl)ccc2c(=O)c3ccccc3n(CC(=O)O)c12 [Compound 272] | > 300 µM | < 5% | B (“B” = 0-2° C.) | 100 to 300 µM
6 | C=CCOc1c(Cl)ccc2c(=O)c3ccccc3n(CC(=O)O)c12 [Compound 273] | 20 to 100 µM | > 50% | C (“C” = 2-7° C,) | 20 to 100 µM
7 | O=C(O)Cn1c2cc(-c3ccoc3)ccc2c(=O)c2ccc(Cl)c(Cl)c21 [Compound 183] | 20 to 100 µM | 25 to 50% | C (“C” = 2-7° C,) | 20 to 100 µM
8 | Cc1c(C(C)C)ccc2c(=O)c3ccc(Cl)c(Cl)c3n(CC(=O)O)c12 [Compound 193] | > 300 µM |  | A (“A” < 0° C.) | 20 to 100 µM
9 | COc1c(Cl)ccc2c(=O)c3ccc(Nc4ccccc4OC(F)(F)F)cc3n(CC(=O)O)c12 [Compound 286] | < 20 µM | > 50% | D (“D” > 7° C.) | < 20 µM
10 | C[C@H](O)COc1c(Cl)ccc2c(=O)c3ccccc3n(CC(=O)O)c12 [Compound 302] | > 300 µM | < 5% | A (“A” < 0° C.) | > 300 µM
11 | C[C@H](Oc1c(Cl)ccc2c(=O)c3ccccc3n(CC(=O)O)c12)c1ccccc1 [Compound 295] | > 300 µM | < 5% | A (“A” < 0° C.) | 100 to 300 µM
12 | COc1c(Cl)ccc2c(=O)c3ccc(-c4cccc(N)c4)cc3n(CC(=O)O)c12 [Compound 275] | < 20 µM | > 50% | D (“D” > 7° C.) | 20 to 100 µM
13 | COc1c(Cl)ccc2c(=O)c3ccc(C4CCCOC4)cc3n(CC(=O)O)c12 (stereo not drawn) [Compound 253] | 20 to 100 µM | > 50% | D (“D” > 7° C.) | 20 to 100 µM
14 | COc1c(Cl)c(O)cc2c(=O)c3ccccc3n(CC(=O)O)c12 [Compound 315] | > 300 µM | < 5% | B (“B” = 0-2° C.) | > 300 µM
15 | COc1c(Cl)ccc2c(=O)c3cc(Br)c(C(C)C)cc3n(CC(=O)O)c12 [Compound 268] | 100 to 300 µM | > 50% | C (“C” = 2-7° C,) | 20 to 100 µM
16 | CCOC(=O)Cn1c2cc(C)ccc2c(=O)c2ccc(Cl)c(OCC)c21 [Compound 321] | > 300 µM | 5 to 25% | B (“B” = 0-2° C.) | > 300 µM
17 | COc1cc(Cl)c(OC)c2c1c(=O)c1ccccc1n2CC(=O)O [Compound 313] | > 300 µM | < 5% | B (“B” = 0-2° C.) | > 300 µM
18 | O=C(O)Cn1c2cc(Cl)ccc2c(=O)c2ccc(Nc3ccccc3)cc21 [Compound 301] | < 20 µM | < 5% | C (“C” = 2-7° C,) | 20 to 100 µM
19 | CSc1ccc2c(=O)c3ccc(Cl)c(Cl)c3n(CC(=O)O)c2c1 [Compound 137] |  | 25 to 50% | C (“C” = 2-7° C,) | 100 to 300 µM

Row | Structure (SMILES) | IC50 (mSTING) | Emax (STING protein) | WT_DSF_hSWAT Tm Shift (° C.) (hSTING-R232) | IC50 (hSTING-WT)
20 | COc1c(Cl)ccc2c(=O)c3ccc(C4CCCNC4)cc3n(CC(=O)O)c12 (stereo not drawn) [Compound 227] |  | < 5% | C (“C” = 2-7° C,) | > 300 µM
21 | COc1c(Cl)ccc2c(=O)c3cc(N(C)C)c(C(C)C)cc3n(CC(=O)O)c12 [Compound 319] | > 300 µM | < 5% | A (“A” < 0° C.) | > 300 µM
22 | COc1c(Cl)ccc2c(=O)c3cc(O)c(C(C)C)cc3n(CC(=O)O)c12 [Compound 317] | > 300 µM | < 5% | B (“B” = 0-2° C.) | > 300 µM
23 | O=C(O)Cn1c2cc(Nc3cnc(Cl)cn3)ccc2c(=O)c2ccc(Cl)c(Cl)c21 [Compound 258] |  | < 5% | D (“D” > 7° C.) | 20 to 100 µM
24 | CSc1c(Cl)ccc2c(=O)c3ccc(C)cc3n(CC(=O)O)c12 [Compound 279] | 20 to 100 µM | > 50% | D (“D” > 7° C.) | 20 to 100 µM
25 | COc1c(Cl)ccc2c(=O)c3ccc(C)cc3n(CC(=O)O)c12 [Compound 280] |  | > 50% | D (“D” > 7° C.) | 20 to 100 µM
26 | [N-]=[N+]=NCc1c(Cl)ccc2c(=O)c3ccccc3n(CC(=O)O)c12 [Compound 305] | > 300 µM | < 5% | B (“B” = 0-2° C.) | > 300 µM
27 | O=C(O)Cn1c2ccccc2c(=O)c2ccc(Cl)c(Oc3ccccc3)c21 [Compound 287] |  | < 5% | B (“B” = 0-2° C.) | > 300 µM
28 | COc1c(Cl)ccc2c(=O)c3ccc(C)cc3n(CC(=O)NC#N)c12 [Compound 338] |  | 25 to 50% | C (“C” = 2-7° C,) | 100 to 300 µM
29 | O=C(O)Cn1c2cc(C3=CCC(O)CC3)ccc2c(=O)c2ccc(Cl)c(Cl)c21 (stereo not drawn) [Compound 213] | 20 to 100 µM |  | C (“C” = 2-7° C,) | 100 to 300 µM
30 | COc1c(Cl)ccc2c(=O)c3ccc(-c4ccoc4)cc3n(CC(=O)O)c12 [Compound 277] |  | > 50% | D (“D” > 7° C.) | < 20 µM
31 | COc1c(Cl)ccc2c(=O)c3ccc(C)cc3n(CC(=O)NS(=O)(=O)C3CC3)c12 [Compound 348] |  | > 50% | C (“C” = 2-7° C,) | 100 to 300 µM
32 | COc1c(Cl)ccc2c(=O)c3ccc(-c4cccc(C)c4)cc3n(CC(=O)O)c12 [Compound 238] |  | > 50% | D (“D” > 7° C.) | < 20 µM
33 | O=C(O)Cn1c2cc(N3CCCC3)ccc2c(=O)c2ccc(Cl)c(Br)c21 [Compound 201] |  | 5 to 25% | C (“C” = 2-7° C,) | 100 to 300 µM
34 | O=C(O)Cn1c2ccccc2c(=O)c2ccc(Cl)c(-c3ccccc3)c21 [Compound 256] | 20 to 100 µM |  | C (“C” = 2-7° C,) | 100 to 300 µM
35 | COc1c(Cl)ccc2c(=O)c3ccc(NC(C)C)cc3n(CC(=O)O)c12 [Compound 300] |  | > 50% | C (“C” = 2-7° C,) | 20 to 100 µM
36 | CC(C)c1ccc2c(=O)c3ccc(Cl)c(Cl)c3n(CC(=O)NS(C)(=O)=O)c2c1 [Compound 352] |  | > 50% | C (“C” = 2-7° C,) | 20 to 100 µM
37 | O=C(O)Cn1c2cc(N3CCCCC3)ccc2c(=O)c2ccc(Cl)c(Br)c21 [Compound 198] | 100 to 300 µM |  | C (“C” = 2-7° C,) | 100 to 300 µM
38 | COc1c(Cl)ccc2c(=O)c3ccc(C4=CCOCC4)cc3n(CC(=O)O)c12 [Compound 254] |  | > 50% | D (“D” > 7° C.) | 20 to 100 µM
